Earlier results in patent US8648203B2 (priority 2005, dated 2014).

Legend:
[1] = system: potato Phycophthora infestans; settings: field tests
mites = settings: repeated treatments in the field

O=[N+]([O-])c1cc(C(F)(F)F)c(Cl)c([N+](=O)[O-])c1Nc1ncc(C(F)(F)F)cc1Cl [fluazinam, 3-chloro-N-(3-chloro-5-trifluoromethyl-2-pyridyl)-α,α,α-trifluoro-2,6-dinitro-p-toluidine]
activity against potato Phycophthora infestans [1]: excellent activity
population of mites (mites): significantly reduce the population of mites
